In series [1] the test system is Intracellular APOB. The experiment in a line: Intracellular APOB protein by immunoblot. Type of series: cell-based, human. To be noted: 2 μg/mL, 24 hours. The protocol:
G. Human iPSC-derived hepatocytes were treated with 2 μg/mL of DL-1 or equivalent concentration of DMSO for 24 hours. […] (A) APOB mRNA level was determined using real-time qPCR. (B) Intracellular APOB, LDLR, and HSP90 protein levels were determined via immunoblot. (C) Quantification of biological replicates of immunoblots on samples treated as in (B). Data are shown as mean±SEM of four replicates (n=4).
C. Human iPSC-derived hepatocytes (iPSC-Heps) were treated with 2 μg/mL of DL-1 or equivalent concentration of DMSO for 24 hours. In FIG. 7A, APOB mRNA level was determined using real-time qPCR. In FIG. 7B Intracellular APOB, LDLR, and HSP90 protein levels were determined via immunoblot; Quantification of biological replicates of immunoblots. […] In FIG. 12A LDL uptake assay was performed by pre-treating cells with 2 μg/mL of DL-1, 20 μM of Atorvastatin, and equivalent concentration of DMSO for 24 hours followed by 4 hours of pHrodo-LDL exposure; LDL endocytosis was determined and quantified by fluorescence image; data are shown as mean±SD of triplicates (n=3). […]
Immunoprecipitation of cell lysates was performed using protein G magnet beads (ThermoFisher) and anti-APOB (LDL20/17, Mabtech) antibodies. […] Expression levels were quantified via integrated intensity normalized by 5% of input of each sample. […] Signals were detected using HRP-conjugated secondary antibodies. […]
In general terms: In western blotting, separated proteins are transferred to a membrane and probed.

The test system of series [2] is Hepatic neutral lipid. The experiment in a line: Neutral lipid staining (BODIPY 493/503) in iPSC-derived hepatocytes. The note with it: 72 hours; DL-1 2 μg/mL, CP-346086 20 nM. Type of series: cell-based, human. The protocol: H. Human iPSC derived hepatocytes were treated with DL-1 (2 μg/mL) and MTTP inhibitor CP-346086 (20 nM) for 72 hours. […] (A) Hepatic neutral lipid was determined by staining with 2 μM of BODIPYTM 493/503 for 15 mins and fixed with 4% PFA for microscopy. Nuclei were stained blue by DAPI. Scale bar=100 μm. […] Data are shown as mean±SEM of ten replicates (n=10); ***p<0.001.
K3 iPSC-derived hepatocytes (Day 20) were treated with or without 2 μg/mL of DL-1 or 20 nM of CP-346086 (Sigma) for 72 hours with daily medium change. At the time-point of interest, cells were treated with 2 μM of BODIPY® 493/503 staining solution (ThermoFisher) and 5 μg/mL of Hoechst 33342 (ThermoFisher) in PBS at 37 degrees for 15 minutes. Cells were washed with sterile PBS three times and then fixed with 4% PFA. Fluorescence images were taken using Bio-rad Zoeυ Fluorescent Cell Imager (Bio-Rad) and KEYENCE BZ-X800E Fluorescence Microscope (KEYENCE). Integrated fluorescent intensity was normalized by total cell counts, which is determined by DAPI staining.

`Sc1nc(S)nc(Nc2ccc(Nc3ccccc3)cc2)n1` (racemic) [DL-1, 6-{[4-(phenylamino)phenyl]amino}-1,3,5-triazine-2,4-dithiol]: the “intracellular APOB protein level” value in series [1] is “no impact on APOB mRNA and intracellular protein levels”. Besides, the “hepatic lipid accumulation (neutral lipid level)” value in series [2] is reported as “no impact on hepatic lipid accumulation”.
